These results are taken from patent publication US20200245620A1 (priority 2018, published 2020).

Values after ≈ are worked out from the molar mass of the structure shown.

This assay relates to Fusarium graminearum. The assay can be described thus: microbe, parasite or virus in culture. Particulars: for EC50: Fusarium graminearum. The assay is classed as cell-based.

As a reminder, the EC50 is the concentration giving half of the maximal effect. `CC(C)C1CCC(Cc2ccc(Cl)cc2)C1(O)Cn1cncn1` (stereo not drawn) [Ipconazole] had an EC50 (F.g carbendazim-resistant strains) of 0.946 µg/mL (≈ 2.83 µM) and a concentration for a half-maximal effect (EC50) (F.g phenamacril-resistant strains) of 0.101 µg/mL (≈ 0.303 µM).

For the compound `OCC1=C[C@H](N[C@H]2C[C@H](CO)[C@@H](O[C@@H]3O[C@H](CO)[C@@H](O)[C@H](O)[C@H]3O)[C@H](O)[C@H]2O)[C@H](O)[C@@H](O)[C@@H]1O` [Jinggangmycin], the “inhibitory activity on the growth in vitro” value (sensitive and fungicide-resistant strains, alone or mixed with ipconazole) is on record as “almost does not have inhibitory activity”.
